Legend:
[1] = biological target: T1, Muscarinic acetylcholine receptor M2 (Homo sapiens, UniProt P08172); test: biochemical; type: cell-based, CHO
T1 sequence (P08172 whole entry): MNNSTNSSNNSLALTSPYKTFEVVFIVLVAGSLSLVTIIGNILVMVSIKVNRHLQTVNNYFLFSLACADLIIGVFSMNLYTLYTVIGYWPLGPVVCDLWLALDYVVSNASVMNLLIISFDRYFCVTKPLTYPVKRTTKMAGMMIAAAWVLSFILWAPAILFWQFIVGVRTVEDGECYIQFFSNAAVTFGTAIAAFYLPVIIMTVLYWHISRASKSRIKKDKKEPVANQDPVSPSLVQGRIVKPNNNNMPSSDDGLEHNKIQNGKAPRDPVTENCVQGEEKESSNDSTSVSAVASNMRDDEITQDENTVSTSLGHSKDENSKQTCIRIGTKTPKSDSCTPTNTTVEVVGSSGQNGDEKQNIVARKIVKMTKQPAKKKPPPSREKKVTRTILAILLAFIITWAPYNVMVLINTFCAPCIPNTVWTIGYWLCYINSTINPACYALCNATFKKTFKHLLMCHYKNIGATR
Description: Displacement of [3H]NMS binding to human Muscarinic acetylcholine receptor M2 using membranes from transfected CHO cells

[2] = biological target: T2, Muscarinic acetylcholine receptor M4 (Homo sapiens, UniProt P08173); test: biochemical; type: cell-based, CHO
T2 sequence (P08173 whole entry): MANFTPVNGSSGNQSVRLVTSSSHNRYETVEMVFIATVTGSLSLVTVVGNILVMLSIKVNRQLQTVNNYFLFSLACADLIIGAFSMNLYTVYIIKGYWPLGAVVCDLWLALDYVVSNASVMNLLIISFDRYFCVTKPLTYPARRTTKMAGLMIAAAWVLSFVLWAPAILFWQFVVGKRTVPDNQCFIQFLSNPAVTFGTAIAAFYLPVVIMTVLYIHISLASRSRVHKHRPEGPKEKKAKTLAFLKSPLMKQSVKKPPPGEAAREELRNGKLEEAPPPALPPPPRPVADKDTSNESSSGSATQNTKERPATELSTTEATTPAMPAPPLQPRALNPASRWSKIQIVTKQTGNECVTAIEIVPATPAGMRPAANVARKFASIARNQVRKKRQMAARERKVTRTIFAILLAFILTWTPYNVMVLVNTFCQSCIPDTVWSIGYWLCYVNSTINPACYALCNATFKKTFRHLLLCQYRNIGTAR
Description: Displacement of [3H]NMS binding to human Muscarinic acetylcholine receptor M4 using membranes from transfected CHO cells

Compound	IC50 [1]	IC50 [2]
CCN1CC=C(c2ccccc2)C(C(=O)OCc2ccccc2)C1 (configuration not stated)	241 nM	146 nM
CCN1CCC(c2ccccc2)=C(C(=O)OCCCc2ccccc2)C1	1040 nM	1160 nM
CCN1CC=C(c2ccccc2)C(C(=O)OCC(c2ccccc2)c2ccccc2)C1 (configuration not stated)	475 nM	4160 nM
CCCCCCCCOC(=O)C1=C(c2ccccc2)CCN(CC)C1	52.5 nM	259 nM
CCN1CCC(c2ccccc2)=C(C(=O)OCc2ccccc2)C1	451 nM	473 nM
CCCCCCCCOC(=O)C1CN(CC)CC=C1c1ccccc1 (configuration not stated)		1250 nM
CCN1CCC(c2ccccc2)=C(C(=O)OCC(c2ccccc2)c2ccccc2)C1	2570 nM	7710 nM
CCCCCCOC(=O)[C@H]1CN(CC)CC[C@H]1c1ccccc1	405 nM	573 nM
CCN1CC=C(c2ccccc2)C(C(=O)OCCCc2ccccc2)C1 (configuration not stated)	2210 nM	1130 nM

Source: ChEMBL document CHEMBL1132561, “Identification and characterization of m1 selective muscarinic receptor antagonists1” (J Med Chem, 1999)
